Results on ten compounds are retold here after patent US9169254B2, “Spiroimidazolone derivative” (Chugai Seiyaku Kabushiki Kaisha, priority 2009, dated 2015).

SMILES strings stand for the structures.

The target in this assay is T1, human PTH1 receptor (Homo sapiens, UniProt Q03431).
T1 sequence (Q03431 27-593): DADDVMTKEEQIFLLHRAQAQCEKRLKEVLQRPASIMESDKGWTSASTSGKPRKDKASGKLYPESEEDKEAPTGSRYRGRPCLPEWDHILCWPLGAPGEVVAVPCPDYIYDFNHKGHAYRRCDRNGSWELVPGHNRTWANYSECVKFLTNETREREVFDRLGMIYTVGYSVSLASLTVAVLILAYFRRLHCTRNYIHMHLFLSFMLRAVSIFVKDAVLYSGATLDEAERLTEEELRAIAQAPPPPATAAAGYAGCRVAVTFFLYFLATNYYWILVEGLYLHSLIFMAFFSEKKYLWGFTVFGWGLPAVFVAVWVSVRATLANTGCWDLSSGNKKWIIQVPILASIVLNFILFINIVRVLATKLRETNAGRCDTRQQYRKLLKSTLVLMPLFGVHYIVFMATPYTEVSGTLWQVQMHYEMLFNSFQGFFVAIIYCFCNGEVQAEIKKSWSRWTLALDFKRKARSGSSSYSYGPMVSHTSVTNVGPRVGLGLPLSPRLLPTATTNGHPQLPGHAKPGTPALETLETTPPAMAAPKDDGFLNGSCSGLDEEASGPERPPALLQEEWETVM
The experiment in a line: In vitro cAMP signal activity in HKRK-B7 cells (LLC-PK1 cells overexpressing the human PTH1 receptor). In kind it is cell-based. The conditions noted are these: HKRK-B7 cells; compound at 1×10^−3 M; cAMP produced as percentage of that produced by hPTH(1-34) at 100 nM.
For the compound `CCOc1cc(NC(C)=O)ccc1/C=C/S(=O)(=O)N1CCC2(CC1)N=C(C1CCC(C)CC1)NC2=O` (stereo not shown) [Compound 509, N-(3-ethoxy-4-{(E)-2-[2-(4-methyl-cyclohexyl)-4-oxo-1,3,8-triaza-spiro[4.5]dec-1-ene-8-sulfonyl]-vinyl}-phenyl)-acetamide], the “cAMP production activity (%)” value was 70%.
For the compound `CCc1cc(NC(C)=O)ccc1/C=C/S(=O)(=O)N1CCC2(CC1)N=C(C1CCC(C)CC1)NC2=O` (stereo not shown) [Compound 510, N-(3-ethyl-4-{(E)-2-[2-(4-methyl-cyclohexyl)-4-oxo-1,3,8-triaza-spiro[4.5]dec-1-ene-8-sulfonyl]-vinyl}-phenyl)-acetamide], the “cAMP production activity (%)” value stood at 57%.
The same measure for `Cc1cc(N2C(=O)NC(C)(C)C2=O)ccc1/C=C/S(=O)(=O)N1CCC2(CC1)N=C(C1CCC(C)CC1)NC2=O` (stereo not shown) [Compound 511, 5,5-dimethyl-3-(3-methyl-4-{(E)-2-[2-(4-methyl-cyclohexyl)-4-oxo-1,3,8-triaza-spiro[4.5]dec-1-ene-8-sulfonyl]-vinyl}-phenyl)-imidazolidine-2,4-dione]: 29%; for `COCc1cc(NC(C)=O)ccc1/C=C/S(=O)(=O)N1CCC2(CC1)N=C(C1CCC(C)CC1)NC2=O` (stereo not shown) [Compound 512, N-(3-methoxymethyl-4-{(E)-2-[2-(4-methyl-cyclohexyl)-4-oxo-1,3,8-triaza-spiro[4.5]dec-1-ene-8-sulfonyl]-vinyl}-phenyl)-acetamide]: 49%.
With `Cc1cc(N2CCOC2=O)ccc1/C=C/S(=O)(=O)N1CCC2(CC1)N=C(C1CCC(C)CC1)NC2=O` (stereo not shown) [Compound 513, 2-(4-methyl-cyclohexyl)-8-{(E)-2-[2-methyl-4-(2-oxo-oxazolidin-3-yl)-phenyl]-ethenesulfonyl}-1,3,8-triaza-spiro[4.5]dec-1-en-4-one] the figure was 33%; with `COCCN(C(C)=O)c1cc(C)c(/C=C/S(=O)(=O)N2CCC3(CC2)N=C(C2CCC(C)CC2)NC3=O)c(C)c1` (stereo not shown) [Compound 514, N-(3,5-dimethyl-4-{(E)-2-[2-(4-methyl-cyclohexyl)-4-oxo-1,3,8-triaza-spiro[4.5]dec-1-ene-8-sulfonyl]-vinyl}-phenyl)-N-(2-methoxy-ethyl)-acetamide], 75%; with `Cc1cc(N2CCOCC2=O)cc(C)c1/C=C/S(=O)(=O)N1CCC2(CC1)N=C(C1CCC(C)CC1)NC2=O` (stereo not shown) [Compound 515, 8-{(E)-2-[2,6-dimethyl-4-(3-oxo-morpholin-4-yl)-phenyl]-ethenesulfonyl}-2-(4-methyl-cyclohexyl)-1,3,8-triaza-spiro[4.5]dec-1-en-4-one], 113%.
With `Cc1cc(N2CCCCC2=O)cc(C)c1/C=C/S(=O)(=O)N1CCC2(CC1)N=C(C1CCC(C)CC1)NC2=O` (stereo not shown) [Compound 516, 8-{(E)-2-[2,6-dimethyl-4-(2-oxo-piperidin-1-yl)-phenyl]-ethenesulfonyl}-2-(4-methyl-cyclohexyl)-1,3,8-triaza-spiro[4.5]dec-1-en-4-one] the figure was 73%.
As to `CC(=O)N(C)Cc1cc(C)c(/C=C/S(=O)(=O)N2CCC3(CC2)N=C(C2CCC(C)CC2)NC3=O)c(C)c1` (stereo not shown) [Compound 517, N-(3,5-dimethyl-4-{(E)-2-[2-(4-methyl-cyclohexyl)-4-oxo-1,3,8-triaza-spiro[4.5]dec-1-ene-8-sulfonyl]-vinyl}-benzyl)-N-methyl-acetamide], the “cAMP production activity (%)” value is recorded as 58%.
Turning to `Cc1cc(CN2C(=O)CNC2=O)cc(C)c1/C=C/S(=O)(=O)N1CCC2(CC1)N=C(C1CCC(C)CC1)NC2=O` (stereo not shown) [Compound 518, 3-(3,5-dimethyl-4-{(E)-2-[2-(4-methyl-cyclohexyl)-4-oxo-1,3,8-triaza-spiro[4.5]dec-1-ene-8-sulfonyl]-vinyl}-benzyl)-imidazolidine-2,4-dione], the “cAMP production activity (%)” value was found to be 68%.
